Source: patent US5786367A, “Cyclic amide derivatives” (Otsuka Pharmaceutical Co., Ltd., priority 1994, dated 1998)
Read-outs that look alike come from different tables or passages of the source.

Columns and labels:
[1] = tested on: skin homogenate of guinea pig; assay: Activity for inhibiting the formation of lipid peroxides (ultraviolet-B irradiated skin homogenate, TBA method); assay type: biochemical, albino guinea pig (Hartley strain, female); conditions: test compound 10^-4 M; UV 9.5 mW/cm^2, 60 minutes
Procedure: The activity for inhibiting the formation of lipid peroxides which are increasingly formed by exposed to the ultraviolet-B radiation to the skin homogenate of guinea pig was determined by a procedure of thiobarbituric acid method (TBA method).
The activity for inhibiting the formation of lipid peroxides can be evaluated by degree of decreasing the optical absorbance of the condensate of thus formed malondialdehyde with thiobarbituric acid, by adding a test sample of the cyclic amide derivative of the present invention to the homogenate.
That is, the hairs covering in the back of an albino guinea pig (Hartley strain, female) were clipped by using an electric hair clippers under anesthesia. After the enucleation of the hair clipped portion of the skin, the subcutaneous tissue of this skin was removed in cold physiological saline. Distilled water in an amount of 9 times by weight of the skin tissue was added to this skin subcutaneous tissue, then was subjected to homogenation and centrifugation (600 g, for 5 minutes) to obtain the supernatant liquid. 5 Microliters each of test sample solutions of various concentrations was added to 0.5 ml each of the supernatant liquid, then the ultraviolet ray in the intensity of 9.5 mW/cm^2 was irradiated for 60 minutes by using fluorescent lamps (TOSHIBA FL-20SE, manufactured by Toshiba Corporation) as a light source. As to the reference sample solution, the solvent for dissolution of the test compound was used in place of the test sample solution. After ultraviolet radiation, the amount of lipid peroxide being formed in the sample solution (TBA value) was measured by TBA method (cf. Analytical Biochemistry, 1979, Vol. 95, pp. 351-358), and the inhibition rate of lipid peroxide formation shown by the test sample was calculated by the following formula: [formula]

skin erythema = assay: Activity for inhibiting skin erythema caused by ultraviolet radiation; assay type: in vivo, albino guinea pig (Hartley strain, female, 7-8 week age); conditions: for inhibition in vivo at 3 %: Cavia porcellus, UV 1.3-1.5 mW/cm^2 for 30 minutes, measured 24 hours later; for 50% inhibitory concentration (IC50) for inhibiting the skin erythema: three concentrations within 0.1 to 10%
Procedure: The hairs covering in the back of albino guinea pig (Hartley strain, female, 7-8 week age) were shaved by using an electric hair clippers and a shaver. In the next day, the guinea pig was fixed in Bowlman's cage, then a light shield tape (adhesive plaster for patch test), having 4 round holes of 1.5 cm in diameter was adhered on the hair clipped portion so as to provide 4 sites (round holes) to be exposed to the ultraviolet rays. […] Each one of the test sample solutions was prepared by dissolving each test compounds in three kinds of concentrations within 0.1 to 10%, and applied.

[2] = tested on: lens samples obtained from rat; assay: Activity for preventing the lens opacity (UV-irradiated cultured lens); assay type: cell-based, rat (Wistar strain, male, 6-10 week age); conditions: 1 h, test compound 1 x 10^-4 M, UV 8.8 mW/cm^2, 60 minutes, read-out: Rate of the activity for preventing lens opacity
Procedure: The lens samples obtained from rat (Wistar strain, male, 6-10 week age) were placed on 24-well plate, and were cultured in DEMEM (Dulbecco's modified Eagle's medium manufactured by Nissui Pharmaceutical Co., Ltd.) at 37° C. overnight, a 5% CO2 environment was used. Under dissecting microscope observation, the lens samples having transparency were only selected to use the test. Thus selected lens samples were transferred to midium (1 ml) in which the test compound was dissolved. (As to the reference test, the medium without containing the test compound was used.) The ultraviolet rays in the intensity of 8.8 mW/cm^2 was irradiated for 60 minutes by using a fluorescent lamp (TOSHIBA FL-20SE) to the lens samples. After the irradiation, the medium was replaced to new medium containing the test compound and further cultured overnight. The medium without the test compound was replaced everyday during 3 days. By using a dissecting microscope, opacity of the lens samples were observed. The degrees of opacity of the lens samples was determined by deviding the field of vision into 8 fields as follows: Score 0: transparent; Score 1: some loss of transparency; and Score 2: completely opaque. Rate of activity for preventing the lens opacity was calculated from the following formula: [formula]

[3] = 3% concentration of test compound, 10 μl topical, read-out: Rate of activity for inhibiting the skin erythema

Structure (SMILES)	Inhibition rate of lipid peroxide formation [1]	inhibition in vivo at 3 % (skin erythema; [3]) [%]	further results
C=CCc1cc2c(cc1O)CCC(=O)N2CC=C(C)C [Example 10, 7-allyl-3,4-dihydro-6-hydroxy-1-prenyl-2(1H)-quinolinone]	82%	38	–
C=CCc1cc2c(cc1O)N(CC=C(C)C)C(=O)CC2 [Example 11, 6-Allyl-3,4-dihydro-7-hydroxy-1-prenyl-2(1H)-quinolinone]	70%	–	–
C=CCOc1cc2c(cc1CC=C)N(CC=C(C)C)C(=O)CC2 [Example 17, 7-allyl-6-allyloxy-3,4-dihydro-1-prenyl-2(1H)-quinolinone]	85%	–	–
C=CCOc1cc2c(cc1CC=C)CCC(=O)N2CC=C(C)C [Example 20, 6-allyl-7-allyloxy-3,4-dihydro-1-prenyl-2(1H)-quinolinone]	81%	37	–
C=CCc1cc2c(c(CC=C)c1O)NC(=O)CC2 [Example 25, 6,8-diallyl-3,4-dihydro-7-hydroxy-2(1H)-quinolinone]	78%	–	–
C=CCc1cc2c(c(CC=C)c1O)CCC(=O)N2 [Example 26, 5,7-diallyl-3,4-dihydro-6-hydroxy-2(1H)-quinolinone]	80%	36	–
C=CCc1cc2c(c(CC=C)c1O)CCC(=O)N2CC=C(C)C [Example 27, 5,7-diallyl-3,4-dihydro-6-hydroxy-1-prenyl-2(1H)-quinolinone]	82%	60	50% inhibitory concentration (IC50) for inhibiting the skin erythema (skin erythema; topical): 1.3 concentration in %
C=CCc1cc2c(c(CC=C)c1O)N(CC=C(C)C)C(=O)CC2 [Example 28, 6,8-diallyl-3,4-dihydro-7-hydroxy-1-prenyl-2(1H)-quinolinone]	80%	30	–
C=CCc1cc2c(c(CC=C)c1O)CCC(=O)N2c1ccc(OC)cc1 [Example 32, 5,7-diallyl-3,4-dihydro-6-hydroxy-1-(4-methoxyphenyl)-2(1H)-quinolinone]	87%	–	–
C=CCc1cc2c(c(CC=C)c1O)CCC(=O)N2CCCCCCCCCCO [Example 33, 5,7-diallyl-3,4-dihydro-6-hydroxy-1-(10-hydroxy)-decyl-2(1H)-quinolinone]	83%	18	50% inhibitory concentration (IC50) for inhibiting the skin erythema (skin erythema; topical): 9.4 concentration in %
C=CCc1cc2c(sc(=O)n2CC=C)c(CC=C)c1O [Example 39, 6-hydroxy-3,5,7-triallylbenzothiazolinone]	82%	42	50% inhibitory concentration (IC50) for inhibiting the skin erythema (skin erythema; topical): 4.7 concentration in %
C=CCc1cc2c(c(CC=C)c1O)CCC(=O)N2C [Example 40]	84%	23	50% inhibitory concentration (IC50) for inhibiting the skin erythema (skin erythema; topical): 5.6 concentration in %
C=CCc1cc2c(c(CC=C)c1O)CCC(=O)N2CC1CCCCC1 [Example 44]	100%	63	50% inhibitory concentration (IC50) for inhibiting the skin erythema (skin erythema; topical): 1.6 concentration in %
C=CCc1cc2c(c(CC=C)c1O)CCC(=O)N2C1C=CCCC1 (stereo not drawn) [Example 45]	95%	–	–
C=CCc1cc2c(c(CC=C)c1O)CCC(=O)N2CC=C [Example 46]	95%	–	–
C=CCc1cc2c(c(CC=C)c1O)CCC(=O)N2C/C=C(\C)CCC=C(C)C [Example 48]	95%	37	–
C=CCOc1cccc(CN2C(=O)CCc3c2cc(CC=C)c(O)c3CC=C)c1 [Example 50]	89%	36	–
C=CCOc1ccc(CN2C(=O)CCc3c2cc(CC=C)c(O)c3CC=C)cc1 [Example 51]	95%	–	–
C=CCc1cc2c(c(CC=C)c1O)CCC(=O)N2Cc1ccc(OC)cc1 [Example 52]	100%	–	–

Structure (SMILES)	Inhibition rate of lipid peroxide formation [1]	inhibition in vivo at 3 % (skin erythema; [3]) [%]	further results
C=CCc1cc(CN2C(=O)CCc3c2cc(CC=C)c(O)c3CC=C)ccc1O [Example 53]	95%	–	–
C=CCc1cc2c(c(CC=C)c1O)CCC(=O)N2Cc1ccc(C)c(C)c1 [Example 54]	96%	–	–
C=CCc1cc2c(c(CC=C)c1O)CCC(=O)N2CC(=O)OCC [Example 57, 5,7-diallyl-1-(ethoxy-carbonylmethyl)-3,4-dihydro-6-hydroxy-2(1H)-quinolinone]	78%	–	–
C=CCc1cc2c(c(CC=C)c1O)CCC(=O)N2c1ccc(OC)c(OC)c1 [Example 60]	83%	27	–
C=CCc1cc2c(cc1O)CCC(=O)N2CCCCCCCCCCO [Example 62]	81%	–	–
C=CCc1c(O)ccc2c1CCC(=O)N2CCCCCCCCCCO [Example 63]	81%	35	50% inhibitory concentration (IC50) for inhibiting the skin erythema (skin erythema; topical): 6.5 concentration in %
C=CCc1ccc2c(c1O)N(CCCCCCCCCCO)C(=O)CC2 [Example 65]	79%	–	–
C=CCc1cc2c(c(CC=C)c1O)CCC(=O)N2CCCNC(N)=O [Example 68, 5,7-diallyl-3,4-dihydro-6-hydroxy-1-(3-ureidopropyl)-2(1H)-quinolinone]	68%	43	–
C=CCc1cc2c(c(CC=C)c1O)CCC(=O)N2CCCNC(=O)CCl [Example 69, 1-(3-chloroacetylaminopropyl)-5,7-diallyl-3,4-dihydro-6-hydroxy-2(1H)-quinolinone]	78%	–	–
C=CCc1cc2c(c(CC=C)c1O)CCC(=O)N2CCCNCCOC [Example 74]	68%	–	–
C=CCc1cc2c(c(CC=C)c1O)CCC(=O)N2CC(=O)O [Example 76, 1-(carboxymethyl)-5,7-diallyl-3,4-dihydro-6-hydroxy-2(1H)-quinolinone]	68%	50	50% inhibitory concentration (IC50) for inhibiting the skin erythema (skin erythema; topical): 3.1 concentration in %
C=CCc1cc(CN2C(=O)CCc3c2ccc(O)c3CC=C)cc(OC)c1O [Example 78, 5-allyl-6-hydroxy-1-(3-allyl-4-hydroxy-5-methoxybenzyl)-3,4-dihydro-2(1H)-quinolinone]	95%	–	–
C=CCOc1cc2c(cc1C=CC)N(CC=C(C)C)C(=O)CC2 [Example 80, 6-allyloxy-3,4-dihydro-1-prenyl-7-(1-propenyl)-2(1H)-quinolinone]	95%	–	–
C=CCc1cc2c(c(CC=C)c1O)CCC(=O)N2CCCCN(CC)CC [Example 86, 5,7-Diallyl-1-(4-diethylaminobutyl)-3,4-dihydro-6-hydroxy-2(1H)-quinolinone.oxalate]	71%	–	–
C=CCc1cc2c(c(CC=C)c1O)CCC(=O)N2CCCCP(=O)(OCC)OCC [Example 93, 5,7-diallyl-1-(4-diethoxy-phosphorylbutyl)-3,4-dihydro-6-hydroxy-2(1H)-quinolinone]	73%	–	–
C=CCc1cc2c(c(CC=C)c1O)CCC(=O)N2C(C)C [Example 98]	–	–	inhibition at 100 µM [2]: 45%
C=CCc1cc2c(c(CC=C)c1O)CCC(=O)N2CC(=O)[O-].[Na+] [Example 113, sodium (5,7-diallyl-6-hydroxy-1,2,3,4-tetrahydro-2-oxoquinolin-1-yl)acetate]	–	–	inhibition in vivo at 3 % (skin erythema; topical, 24 h, read-out: Rate of activity for inhibiting the skin erythema, 3% concentration of test compound, 10 μl topical): 52%; 50% inhibitory concentration (IC50) for inhibiting the skin erythema (skin erythema; topical): 2.5 concentration in %
Cc1c(C)c2c(c(C)c1O)CCC(C)(CCCC(C)CCCC(C)CCCC(C)C)O2 (stereo not drawn) [Vitamin E, α-tocopherol, reference compound]	77-79%	–	–
